Data from US9872495B2, “Peptoid oligomers, pharmaceutical compositions and methods of using the same” (priority 2009, dated 2018).
≈ marks a conversion by molar mass, not a printed value. Where two headings read alike, the source gives them in different places. Numbered stars: 1 amine (or outer) side, 2 acyl side, 3 side chain; on linkers, the order of the positions; unused ones are H or OH. Square brackets hold non-standard residues; d marks the D form. Peptide text beside a SMILES is read from it. X1 = O=C(CN(CC(c1ccccc1)c1ccccc1)[*:1])[*:2]; Gly(N-(CH2)6NH2) = NCCCCCCNCC(=O)O; Gly(N(CH2)3NH2) = NCCCNCC(=O)O; NhArg = N=C(N)NCCCCNCC(=O)O; N(iPr)Gly = CC(C)NCC(=O)O; Nphe = O=C(O)CNCc1ccccc1; Orn = NCCC[C@H](N)C(=O)O; Nleu = CC(C)CNCC(=O)O; Nlys = NCCCCNCC(=O)O

Key:
Format in all cases: cell-based
[1] = test system: Bacillus subtilis ATCC 6633
Experimental: (§1) Antimicrobial activity was tested against the gram-negative strain Escherichia coli ATCC 25922, and […] strains Staphylococcus aureus ATCC 25923, and Bacillus subtilis ATCC 6633, according to the guidelines given in the document […]-A7 of the CLSI (Clinical and Laboratory Standards Institute; Clinical and Laboratory Standards Institute. Methods for Dilution Antimicrobial Susceptibility Tests for Bacteria That Grow Aerobically-Seventh Edition: Approved Standard CLSI document […]-A7. CLSI, Wayne, USA, 2006). This reference is incorporated herein in its entirety. Hemolytic activity was tested against fresh human erythrocytes.

[2] = test system: Escherichia coli ATCC 25922
Experimental: as §1

[3] = test system: Staphylococcus aureus ATCC 25923
Experimental: as §1

[4] = test system: fresh human erythrocytes; test: Hemolytic activity
Experimental: Typically, toxicity is evaluated by hemolytic concentration50 (HC50), which measures the concentration of antimicrobial agents at which 50% of the erythrocytes in the culture are lysed. Significant hemolysis, as evaluated by HC50, was detectable only for peptide gramicidin S (40 μg/mL). […] In order to test hemolytic activity of peptoid oligomers further, more stringent parameters were used. Instead of HC50, hemolytic concentration10 (HC10) was used to evaluate hemolytic activity of peptoids used in this study. HC10 represents the concentration of antimicrobial agents where 10% of erythrocytes are lysed. HC10 values were detectable for only four peptoid oligomers. […] Antimicrobial activity was tested against the gram-negative strain Escherichia coli ATCC 25922, and […] strains Staphylococcus aureus ATCC 25923, and Bacillus subtilis ATCC 6633, according to the guidelines given in the document […]-A7 of the CLSI (Clinical and Laboratory Standards Institute; Clinical and Laboratory Standards Institute. Methods for Dilution Antimicrobial Susceptibility Tests for Bacteria That Grow Aerobically-Seventh Edition: Approved Standard CLSI document […]-A7. CLSI, Wayne, USA, 2006). This reference is incorporated herein in its entirety. Hemolytic activity was tested against fresh human erythrocytes.

SMILES	MIC B. sub ([1]; ATCC 6633) [µg/mL]	MIC E. coli ([2]; ATCC 25922) [µg/mL]	MIC S. aureus ([3]; ATCC 25923) [µg/mL]	HC50 (concentration where 50% hemolysis is observed) [4] [µg/mL]	HC10 (concentration where 10% hemolysis is observed) ([4]; red cells of human) [µg/mL]	HC50 (concentration where 50% hemolysis is observed) ([4]; red cells of human) [µg/mL]	non-hemolytic up to (concentration) [4] [µg/mL]	MIC B. sub ([1]; B. subtilis ATCC 6633) [µg/mL]	MIC E. coli ([2]; E. coli ATCC 25922) [µg/mL]	MIC S. aureus ([3]; S. aureus ATCC 25923) [µg/mL]	HC10 (concentration where 10% hemolysis is observed) ([4]; fresh human erythrocytes) [µg/mL]	HC50 (concentration where 50% hemolysis is observed) ([4]; fresh human erythrocytes) [µg/mL]
CC(C)C[C@@H]1NC(=O)[C@H](CCCN)NC(=O)[C@H](C(C)C)NC(=O)[C@@H]2CCCN2C(=O)[C@@H](Cc2ccccc2)NC(=O)[C@H](CC(C)C)NC(=O)[C@H](CCCN)NC(=O)[C@H](C(C)C)NC(=O)[C@@H]2CCCN2C(=O)[C@@H](Cc2ccccc2)NC1=O [Compound 17, Gramicidin S, reference compound] (cyclo(V[Orn]L[dF]PV[Orn]L[dF]P))	2 (≈ 1.75 µM)	15.6 (≈ 13.7 µM)	15.6 (≈ 13.7 µM)	40	>15.6							
N=C(N)NCCCCN1CC(=O)N(Cc2ccccc2)CC(=O)N(CCCCNC(=N)N)CC(=O)N(Cc2ccccc2)CC(=O)N(CCCCNC(=N)N)CC(=O)N(Cc2ccccc2)CC1=O [Compound 18, C(NgbNpm)3] (cyclo([Nphe][NhArg][Nphe][NhArg][Nphe][NhArg]))	125 (≈ 131 µM)	250 (≈ 263 µM)	250 (≈ 263 µM)		>250	>250						
NCCCCCCN1CC(=O)N(Cc2ccccc2)CC(=O)N(CCCCCCN)CC(=O)N(Cc2ccccc2)CC(=O)N(CCCCCCN)CC(=O)N(Cc2ccccc2)CC1=O [Compound 19, C(NahNpm)3] (cyclo([Nphe][Gly(N-(CH2)6NH2)][Nphe][Gly(N-(CH2)6NH2)][Nphe][Gly(N-(CH2)6NH2)]))	500 (≈ 549 µM)	500 (≈ 549 µM)	>500		>250	>250						
NCCCN1CC(=O)N(CC(c2ccccc2)c2ccccc2)CC(=O)N(CCCN)CC(=O)N(CC(c2ccccc2)c2ccccc2)CC(=O)N(CCCN)CC(=O)N(CC(c2ccccc2)c2ccccc2)CC1=O [Compound 20, C(NapNdp)3]	1 (≈ 0.948 µM)	15.6 (≈ 14.8 µM)	7.8 (≈ 7.4 µM)		>31.3	>250						
NCCCN1CC(=O)N(Cc2ccc3ccccc3c2)CC(=O)N(CCCN)CC(=O)N(Cc2ccc3ccccc3c2)CC(=O)N(CCCN)CC(=O)N(Cc2ccc3ccccc3c2)CC1=O [Compound 21, C(NapNnm)3]	0.5 (≈ 0.535 µM)	31.3 (≈ 33.5 µM)	31.3 (≈ 33.5 µM)		>250	>250						
NCCCN1CC(=O)N(CCCN)CC(=O)N(Cc2ccccc2)CC(=O)N(CCCN)CC(=O)N(Cc2ccccc2)CC(=O)N(CCCN)CC1=O [Compound 22, C(NapNpm)2Nap2] (cyclo([Nphe][Gly(N(CH2)3NH2)][Nphe][Gly(N(CH2)3NH2)][Gly(N(CH2)3NH2)][Gly(N(CH2)3NH2)]))	>500	>500	>500		>250	>250						
NCCCN1CC(=O)N(Cc2ccccc2)CC(=O)N(CCCN)CC(=O)N(Cc2ccccc2)CC(=O)N(CCCN)CC(=O)N(Cc2ccccc2)CC1=O [Compound 23, C(NapNpm)3] (cyclo([Nphe][Gly(N(CH2)3NH2)][Nphe][Gly(N(CH2)3NH2)][Nphe][Gly(N(CH2)3NH2)]))	500 (≈ 638 µM)	>500	500 (≈ 638 µM)		>250	>250						
NCCCN1CC(=O)N(Cc2ccccc2)CC(=O)N(CCCN)CC(=O)N(Cc2ccccc2)CC(=O)N(CCCN)CC(=O)N(Cc2ccccc2)CC(=O)N(CCCN)CC(=O)N(Cc2ccccc2)CC1=O [Compound 24, C(NapNpm)4] (cyclo([Nphe][Gly(N(CH2)3NH2)][Nphe][Gly(N(CH2)3NH2)][Nphe][Gly(N(CH2)3NH2)][Nphe][Gly(N(CH2)3NH2)]))	2 (≈ 1.91 µM)	31.3 (≈ 29.9 µM)	31.3 (≈ 29.9 µM)		>250	>250	≥ 250					
NCCCN1CC(=O)N(Cc2ccccc2)CC(=O)N(CCCN)CC(=O)N(Cc2ccccc2)CC(=O)N(CCCN)CC(=O)N(Cc2ccccc2)CC(=O)N(CCCN)CC(=O)N(Cc2ccccc2)CC(=O)N(CCCN)CC(=O)N(Cc2ccccc2)CC1=O [Compound 25, C(NapNpm)5] (cyclo([Nphe][Gly(N(CH2)3NH2)][Nphe][Gly(N(CH2)3NH2)][Nphe][Gly(N(CH2)3NH2)][Nphe][Gly(N(CH2)3NH2)][Nphe][Gly(N(CH2)3NH2)]))	0.5 (≈ 0.383 µM)	7.8 (≈ 5.97 µM)	7.8 (≈ 5.97 µM)		>250	>250	≥ 250					
NCCCN1CC(=O)N(Cc2ccccc2)CC(=O)N(Cc2ccccc2)CC(=O)N(Cc2ccccc2)CC(=O)N(CCCN)CC(=O)N(Cc2ccccc2)CC1=O [Compound 26, C(NpmNap)2Npm2] (cyclo([Nphe][Nphe][Nphe][Gly(N(CH2)3NH2)][Nphe][Gly(N(CH2)3NH2)]))	15.6 (≈ 19.1 µM)	500 (≈ 612 µM)	500 (≈ 612 µM)		>250	>250						
CC(C)CN1CC(=O)N(Cc2ccccc2)CC(=O)N2CCC[C@H]2C(=O)N(C(C)C)CC(=O)N(CCCN)CC(=O)N(CC(C)C)CC(=O)N(Cc2ccccc2)CC(=O)N2CCC[C@H]2C(=O)N(C(C)C)CC(=O)N(CCCN)CC1=O [Compound 27, C(NipNapNibNpmPro)2] (cyclo([Nleu][Nphe]P[N(iPr)Gly][Gly(N(CH2)3NH2)][Nleu][Nphe]P[N(iPr)Gly][Gly(N(CH2)3NH2)]))								>500	>500	>500	>250	>250
CC(C)CN1CC(=O)N(CCCCNC(=N)N)CC(=O)N(C(C)C)CC(=O)N2CCC[C@H]2C(=O)N(CC(c2ccccc2)c2ccccc2)CC(=O)N(CC(C)C)CC(=O)N(CCCCNC(=N)N)CC(=O)N(C(C)C)CC(=O)N2CCC[C@H]2C(=O)N(CC(c2ccccc2)c2ccccc2)CC1=O [Compound 28, C(NdpNibNgbNipPro)2] (cyclo([Nleu][NhArg][N(iPr)Gly]P[X1][Nleu][NhArg][N(iPr)Gly]P[X1]))	62.5 (≈ 43.6 µM)	31.3 (≈ 21.8 µM)	62.5 (≈ 43.6 µM)		>250	>250						
NCCCCN1CC(=O)N(Cc2ccccc2)CC(=O)N(CCCCN)CC(=O)N(Cc2ccccc2)CC(=O)N(CCCCN)CC(=O)N(Cc2ccccc2)CC1=O [Compound 30, C(NabNpm)3] (cyclo([Nlys][Nphe][Nlys][Nphe][Nlys][Nphe]))	250 (≈ 303 µM)	250 (≈ 303 µM)	500 (≈ 605 µM)		>250	>250						
N=C(N)NCCCCN1CC(=O)N(CC(c2ccccc2)c2ccccc2)CC(=O)N(CCCCNC(=N)N)CC(=O)N(CC(c2ccccc2)c2ccccc2)CC(=O)N(CCCCNC(=N)N)CC(=O)N(CC(c2ccccc2)c2ccccc2)CC(=O)N(CCCCNC(=N)N)CC(=O)N(CC(c2ccccc2)c2ccccc2)CC(=O)N(CCCCNC(=N)N)CC(=O)N(CC(c2ccccc2)c2ccccc2)CC1=O [Compound 31, C(NgbNdp)5]	250 (≈ 123 µM)	250 (≈ 123 µM)	250 (≈ 123 µM)		>62.5	>250						
N=C(N)NCCCCN1CC(=O)N(CC(c2ccccc2)c2ccccc2)CC(=O)N(CC(c2ccccc2)c2ccccc2)CC(=O)N(CC(c2ccccc2)c2ccccc2)CC(=O)N(CCCCNC(=N)N)CC(=O)N(CC(c2ccccc2)c2ccccc2)CC1=O [Compound 32, C(NdpNgb)2Ndp2]	>500	>500	>500		>250	>250						
